Consider eleven compounds from ChEMBL document CHEMBL1201862, “PubChem BioAssay data set” (2004).

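Exposure lasted 48 hours, with cells grown in 96-well plates and compounds tested at five concentrations. The concentration for 50% growth inhibition is given as GI50.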 Active and inactive are the calls of the source. Rule as the data show it: active = GI50 up to about 1.1 µM and inactive = higher.

Test systems include DU-145; HCT-15; HL-60; HOP-92; Hs-578T; IGROV-1; MDA-MB-231; MDA-MB-435; Malme-3M; NCI-H23; NCI-H460; NCI-H522; OVCAR-4; OVCAR-5; SF-295; SN12C; T47D; UACC-257; UO-31.
Experiment in all cases: DTP human tumour cell line panel, 48 h

For orientation: GI50 means the concentration that inhibits growth by half. `COc1ccc(OC)c(-c2cc(C(=O)O)c3cc4ccccc4cc3n2)c1`: the GI50 was > 100 µM (inactive) with DU-145; above 100 µM in the experiment with HCT-15; > 100 µM (inactive) with HL-60; > 100 µM (inactive) in the experiment on HOP-92; > 100 µM (inactive) with Hs-578T; > 100 µM (inactive) with IGROV-1. Further, the GI50 in the experiment on MDA-MB-231, in the experiment with MDA-MB-435, in the experiment on Malme-3M, with NCI-H23, in the experiment on NCI-H460 and in the experiment with NCI-H522 was > 100 µM (inactive) throughout. The GI50 in the experiment on OVCAR-4, with OVCAR-5, in the experiment with SF-295, with SN12C, in the experiment with T47D and in the experiment on UACC-257 was > 100 µM (inactive) each time.

Regarding `CCSc1n/c(=C\c2ccc(N(C)C)cc2)c2nnnn12`, the GI50 in the experiment on DU-145 was > 100 µM (inactive); in the experiment with HCT-15, above 100 µM; with HL-60, > 100 µM (inactive); in the experiment on HOP-92, > 100 µM (inactive); with Hs-578T, > 100 µM (inactive); in the experiment with IGROV-1, > 100 µM (inactive). Also, the GI50 with MDA-MB-231, with MDA-MB-435, in the experiment on Malme-3M, in the experiment on NCI-H23, with NCI-H460 and in the experiment with NCI-H522 was > 100 µM (inactive) in each case. Besides, the GI50 is > 100 µM (inactive) in the experiment on OVCAR-4; > 100 µM (inactive) with OVCAR-5; 99.3 µM (inactive) with SF-295; > 100 µM (inactive) with SN12C; > 100 µM (inactive) in the experiment on T47D; > 100 µM (inactive) with UACC-257.

Turning to `C[C@]12O[C@@]3(C)O[C@@]3(C)[C@]3(C)O[C@]3(C)[C@@]1(C)O2`, the GI50 in the experiment on DU-145 was > 100 µM (inactive); in the experiment on HCT-15, above 100 µM; with HOP-92, > 100 µM (inactive); in the experiment on Hs-578T, > 100 µM (inactive); in the experiment with MDA-MB-231 it was > 100 µM (inactive); with MDA-MB-435, > 100 µM (inactive). In addition, the GI50 in the experiment on Malme-3M, in the experiment with NCI-H23, with NCI-H522, in the experiment with OVCAR-4, with OVCAR-5 and in the experiment with SF-295 was > 100 µM (inactive) each time. The GI50 with SN12C was > 100 µM (inactive); in the experiment with T47D, 1.22 µM (inactive); with UACC-257, > 100 µM (inactive); in the experiment on UO-31, > 100 µM (inactive).

In the case of `COc1ccc2c(c1)CCc1[nH]c3ccccc3c1CCCC2`, the GI50 with DU-145 is > 10 µM (inactive); with HCT-15 it was above 10 µM; with HL-60 it was > 10 µM (inactive); in the experiment on HOP-92, > 10 µM (inactive); in the experiment on Hs-578T, > 10 µM (inactive); in the experiment with IGROV-1 it was > 10 µM (inactive). The GI50 in the experiment on MDA-MB-231, in the experiment with MDA-MB-435, with Malme-3M, in the experiment on NCI-H23, with NCI-H522 and in the experiment on OVCAR-4 was > 10 µM (inactive) each time. Further, the GI50 in the experiment on OVCAR-5, in the experiment with SF-295, in the experiment on SN12C, in the experiment on T47D and in the experiment on UACC-257 was > 10 µM (inactive) in each case.

Regarding `Cc1ccc(S(=O)(=O)Nc2nc3ccccc3c(=O)n2C2CCCCC2)cc1`, the GI50 is > 100 µM (inactive) in the experiment with DU-145; above 100 µM in the experiment with HCT-15; 57.9 µM (inactive) in the experiment with HL-60; 67.5 µM (inactive) with HOP-92; 62.5 µM (inactive) with Hs-578T; > 100 µM (inactive) in the experiment on IGROV-1. Also, the GI50 with MDA-MB-231 is 78.3 µM (inactive); in the experiment with MDA-MB-435, > 100 µM (inactive); in the experiment with NCI-H23, > 100 µM (inactive); in the experiment on NCI-H460, 97.1 µM (inactive); with NCI-H522, 41.7 µM (inactive); in the experiment with OVCAR-4 it was 51.8 µM (inactive). The GI50 in the experiment with OVCAR-5 was > 100 µM (inactive); in the experiment on SF-295, 23.1 µM (inactive); in the experiment on SN12C it was > 100 µM (inactive); with T47D it was > 100 µM (inactive); in the experiment on UACC-257, > 100 µM (inactive); in the experiment on UO-31, > 100 µM (inactive).

`CCOC(=O)c1cn2c(n1)sc1cc(C)c(C)cc12`: the GI50 with DU-145 is 21.4 µM (inactive); with HCT-15 it was 27.9 µM; in the experiment with HOP-92, 25.4 µM (inactive); in the experiment on Hs-578T it was 27.6 µM (inactive); in the experiment with IGROV-1, 23 µM (inactive); in the experiment on MDA-MB-231 it was 24.3 µM (inactive). The GI50 in the experiment on MDA-MB-435 is 20.3 µM (inactive); in the experiment on Malme-3M it was 17.3 µM (inactive); in the experiment with NCI-H23, 35.7 µM (inactive); in the experiment on NCI-H460 it was 42.8 µM (inactive); in the experiment with NCI-H522, 31 µM (inactive); in the experiment with OVCAR-4 it was > 100 µM (inactive). In addition, the GI50 was 16.8 µM (inactive) in the experiment with OVCAR-5; 32 µM (inactive) in the experiment with SF-295; 19.1 µM (inactive) in the experiment on SN12C; 25.5 µM (inactive) with T47D; 31.8 µM (inactive) in the experiment with UACC-257; 18.8 µM (inactive) in the experiment with UO-31.

On to `CC1C(c2ccccc2)NC(c2ccccc2)CC1(N)C#N` (centres undefined), for which the GI50 is > 100 µM (inactive) in the experiment with DU-145; above 100 µM with HCT-15; > 100 µM (inactive) in the experiment on HL-60; 95.1 µM (inactive) in the experiment with HOP-92; > 100 µM (inactive) with Hs-578T; > 100 µM (inactive) in the experiment with IGROV-1. In addition, the GI50 with MDA-MB-231, in the experiment on MDA-MB-435, in the experiment on NCI-H23, in the experiment with NCI-H460, in the experiment with NCI-H522 and with OVCAR-4 was > 100 µM (inactive) throughout. Further, the GI50 with OVCAR-5 is > 100 µM (inactive); in the experiment with SF-295 it was > 100 µM (inactive); in the experiment with SN12C it was > 100 µM (inactive); with T47D, > 100 µM (inactive); in the experiment on UACC-257 it was 48 µM (inactive); in the experiment on UO-31 it was > 100 µM (inactive).

Take `Cc1ccc(S(=O)(=O)N(CC(O)COc2ccccc2)c2c(F)cccc2F)cc1` (centres undefined): the GI50 with DU-145 was 24.9 µM (inactive); in the experiment with HCT-15, 16.1 µM; in the experiment with HL-60 it was 29.4 µM (inactive); in the experiment on HOP-92 it was 0.114 µM (active); in the experiment on Hs-578T it was 20 µM (inactive); with MDA-MB-231 it was 17.9 µM (inactive). The GI50 in the experiment on MDA-MB-435 is 15.4 µM (inactive); in the experiment with Malme-3M it was 21 µM (inactive); in the experiment on NCI-H23, 18.5 µM (inactive); in the experiment on NCI-H460 it was 15.1 µM (inactive); in the experiment on OVCAR-4, 13.2 µM (inactive); with OVCAR-5, 38 µM (inactive). Also, the GI50 with SF-295 was 29.2 µM (inactive); with SN12C it was 21.1 µM (inactive); in the experiment with T47D, 2.21 µM (inactive); in the experiment on UACC-257, 21.8 µM (inactive); in the experiment with UO-31, 15.7 µM (inactive).

Consider `O=c1oc2c/c(=C\c3ccccn3)c(=O)c3cccc1c3-2`, for which the GI50 with DU-145 was > 100 µM (inactive); in the experiment on HCT-15, above 100 µM; in the experiment on HL-60 it was > 100 µM (inactive); with HOP-92 it was > 100 µM (inactive); in the experiment on Hs-578T, > 100 µM (inactive); in the experiment on IGROV-1 it was 90.8 µM (inactive). Further, the GI50 in the experiment with MDA-MB-231 is 31.8 µM (inactive); in the experiment on MDA-MB-435 it was > 100 µM (inactive); in the experiment with Malme-3M it was 72.3 µM (inactive); in the experiment with NCI-H23, > 100 µM (inactive); in the experiment with NCI-H460, > 100 µM (inactive); in the experiment with NCI-H522, 16.1 µM (inactive). Moreover, the GI50 was > 100 µM (inactive) in the experiment on OVCAR-4; > 100 µM (inactive) with OVCAR-5; > 100 µM (inactive) in the experiment on SF-295; 95.5 µM (inactive) with SN12C; 38.1 µM (inactive) in the experiment with T47D; > 100 µM (inactive) with UACC-257.

Regarding `Cc1cccc(C)c1Nc1nc(C)c(C(=O)CC(=O)C(=O)Nc2c(C(C)C)cccc2C(C)C)s1`, the GI50 with DU-145 was > 100 µM (inactive); with HCT-15 it was above 100 µM; in the experiment with HL-60, 24.7 µM (inactive); in the experiment with HOP-92 it was 43.4 µM (inactive); in the experiment with Hs-578T it was > 100 µM (inactive); in the experiment with IGROV-1 it was > 100 µM (inactive). The GI50 in the experiment on MDA-MB-231, in the experiment with MDA-MB-435, with NCI-H23, in the experiment on NCI-H460, with NCI-H522 and in the experiment with OVCAR-4 was > 100 µM (inactive) throughout. The GI50 with OVCAR-5 is > 100 µM (inactive); in the experiment on SF-295, 58.5 µM (inactive); in the experiment on SN12C it was > 100 µM (inactive); with T47D it was > 100 µM (inactive); with UACC-257, > 100 µM (inactive); in the experiment with UO-31, 39.4 µM (inactive).

`CC(C)=CCN=C(N)N`: the GI50 is > 100 µM (inactive) in the experiment on DU-145; above 100 µM in the experiment with HCT-15; 45.8 µM (inactive) in the experiment on HL-60; > 100 µM (inactive) in the experiment on HOP-92; > 100 µM (inactive) in the experiment with Hs-578T; > 100 µM (inactive) with IGROV-1. In addition, the GI50 in the experiment on MDA-MB-231, in the experiment with MDA-MB-435, with Malme-3M, with NCI-H23, in the experiment with NCI-H460 and with NCI-H522 was > 100 µM (inactive) in each case. Besides, the GI50 in the experiment with OVCAR-4, in the experiment on SF-295, with SN12C, in the experiment with T47D, in the experiment with UACC-257 and in the experiment on UO-31 was > 100 µM (inactive) each time.
